Source: ChEMBL document CHEMBL3352092, “Ferrier sulfamidoglycosylation of glycals catalyzed by nitrosonium tetrafluoroborate: towards new carbonic anhydrase glycoinhibitors” (Bioorg Med Chem, 2014)

Key:
[1] = target: Carbonic anhydrase 1 (Homo sapiens, UniProt P00915); assay: Inhibition of human full length CA1 by stopped flow CO2 hydration assay
[2] = target: Carbonic anhydrase 9 (Homo sapiens, UniProt Q16790); assay: Inhibition of human recombinant CA9 catalytic domain by stopped flow CO2 hydration assay
[3] = target: Carbonic anhydrase 2 (Homo sapiens, UniProt P00918); assay: Inhibition of human full length CA2 by stopped flow CO2 hydration assay

Carbonic anhydrase 1, sequence (P00915 whole entry, the tested form may be a part): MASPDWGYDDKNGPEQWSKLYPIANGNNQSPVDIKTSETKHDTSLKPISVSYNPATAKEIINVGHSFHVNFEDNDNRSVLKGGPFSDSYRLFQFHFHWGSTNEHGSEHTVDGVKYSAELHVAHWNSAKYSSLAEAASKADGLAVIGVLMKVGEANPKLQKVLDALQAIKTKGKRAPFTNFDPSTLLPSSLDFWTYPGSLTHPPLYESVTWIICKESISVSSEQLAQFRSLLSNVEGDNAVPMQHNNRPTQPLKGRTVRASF

Ki [1] [nM] | Ki [2] [nM] | Ki [3] [nM] | SMILES
> 10000 | 47 | – | CC(=O)O[C@@H]1C=CC(NS(=O)(=O)NO)O[C@H]1C (stereo partly drawn)
> 10000 | 9 | – | O=S(=O)(NO)NC1C=C[C@H](O)[C@@H](CO)O1 (stereo partly drawn)
917 | 44 | – | O=S(=O)(NO)NC1C=C[C@@H](O)[C@@H](CO)O1 (stereo partly drawn)
> 10000 | 8 | > 10000 | C[C@@H]1OC(NS(=O)(=O)NO)C=C[C@H]1O (stereo partly drawn)

Further lines, the compound ahead of its results:

SMILES | Ki [1] [nM] | Ki [2] [nM] | Ki [3] [nM]
CC(=O)OC[C@H]1OC(NS(=O)(=O)NO)C=C[C@@H]1OC(C)=O (stereo partly drawn) | 813 | 90 | –
CC(=O)OC[C@H]1OC(NS(=O)(=O)NO)C=C[C@H]1OC(C)=O (stereo partly drawn) | 752 | 79 | –
CC(=O)O[C@H]1C=CC(NS(=O)(=O)NO)OC1 (stereo partly drawn) | > 10000 | 54 | > 10000
CC(=O)O[C@@H]1C=CC(NS(=O)(=O)NO)OC1 (stereo partly drawn) | > 10000 | 44 | > 10000
O=S(=O)(NO)NC1C=C[C@H](O)CO1 (stereo partly drawn) | 927 | 8 | –
O=S(=O)(NO)NC1C=C[C@@H](O)CO1 (stereo partly drawn) | > 10000 | 9 | –
